Measurements taken from patent US12391679B2, “Benzamide-substituted bicyclic imidazo- and pyrazolo-fused -pyridine, -pyrimide, and -pyridazine compounds for treatment of inflammatory diseases” (ONCO3R Therapeutics BV, priority 2019, dated 2025).

Key:
[1] = tested on: LPS-induced TNFα in monocytes; experiment: Monocytes assay: LPS-triggered TNFα (ELISA); assay type: cell-based, human; conditions: Homo sapiens, Monocyte, LPS-triggered TNFα inhibition
Procedure: (§1) This assay evaluates illustrative compounds of the invention for their inhibition of LPS-induced TNFα and LPS triggered IL-10 secretion in monocytes.
(§2) PBMCs are isolated from human blood samples (buffycoats). The buffy coat is aseptically transferred into a 50 mL Falcon tube, and diluted 1/2 in PBS. Falcon tubes are filled with 20 mL Lymphoprep™, on top of which 25 mL of the buffy coat is carefully added, tubes are centrifuged for 35 min at 400 g in temperature controlled centrifuge, without brake, at 25° C. PBMCs are aspirated from the white interface layer between sample and Lymphoprep™. PBMCs are washed five times in PBS.
(§3) PBMCs are centrifuged at 300×g for 10 min and resuspended at a density of 1.0*10^7 cells/80 μL Miltenyi buffer (PBS, pH 7.4, 1% FBS, 2 mM EDTA).
(§4) Starting from this point of the protocol all steps are performed on ice. 20 μL of CD14+ micro-beads are added per 1.0*10^7 cells, the tube is mixed and incubated for 15 min in the fridge at 4° C. Cell suspension volume is adjusted to total volume of 100 mL using Miltenyi buffer, mixed gently and subsequently centrifuged for 10 min at 300×g. Supernatant is discarded and cell pellet is resuspended in 12 mL of Miltenyi buffer.
(§5) Four LS columns are placed in the MACS Separator (magnet) from Miltenyi Biotec, and are prewet by rinsing with 3 mL of MACS buffer per column. Three mL of cell suspension is added onto the column (max 1*10^8 of labelled cells/column), and columns are subsequently washed 3 times with 3 mL of Miltenyi buffer.
(§6) The columns are removed from the magnets, and 5 mL of Miltenyi buffer are added to the column to flush out the CD14+ fraction by pushing the plunger into the column. The flushed fractions are collected in a fresh 50 mL Falcon and volume is adjusted to 30 mL using Miltenyi buffer, cells are centrifuged for 10 min at 300×g. The obtained cell pellet is resuspended in 10 mL RPMI w/o FBS, and cell density is determined using a hematologic analyser (Sysmex XS-500i).
(§7) A compound dilution plate is made in 100% DMSO by 3-fold dilution of 10 mM stock solution. An intermediate dilution plate (10× final concentration) is made by diluting the compound dilution plate 50-fold in RPMI medium.
(§8) 10 μL of the 10× final concentration compound is added to the cells and incubated for 1 h at 37° C. before addition of trigger. No trigger conditions/trigger conditions are spiked with equal final DMSO concentrations of 0.2% DMSO. 10 μL of 10×LPS (final conc. 200 ng/mL) solution are added to all wells except for the ‘no trigger wells’ where 10 μL medium is added. Supernatant is collected after 4 h of LPS triggering.
The plate is then washed once with PBST (PBS+0.05% Tween20) and once with PBS followed by the addition of 100 μL of blocking buffer (1% Bovine Serum Albumin (BSA)-5% Sucrose) and plates are sealed and incubated for at least 4 h at RT. After washing the plate once with PBST and once with PBS, […]. Plates are washed twice with PBST, and once with PBS, after which 35 μL of the detection antibody is added (final concentration 0.25 μg/mL diluted in dilution buffer) and plates are incubated for at least 2 h at RT. Plates are washed twice with PBST, and once with PBS, whereafter 35 μL of Strep-HRP conjugate (0.5 μg/mL final concentration diluted in dilution buffer) is added. Plates are incubated in the dark, at RT for at least 45 min but no longer than 1 h. Plates are washed twice with PBST, and once with PBS. Thereafter, 50 μL of luminol substrate is added to each well (prepared according to manufacturer's instructions), and incubated for 5 min at RT protected from light.
To measure the inhibition of LPS induced TNFα, percentage inhibition (PIN) values are calculated for all concentrations tested, compared to controls.

[2] = molecular target: T1, SIK1 (Homo sapiens, UniProt P57059); experiment: ADP-Glo kinase assay, SIK1; assay type: biochemical
T1 construct: purchased Carna Biosciences 02-131
Method in brief: (§9)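 Luminescent ADP-Glo readout of ADP formed. Enzyme-substrate mix with ATP, reaction 120 min at RT, then 40 min ATP depletion and 30 min detection. Controls were 1% DMSO (negative) and 10 μM staurosporine (positive), both final.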

[3] = molecular target: T2, SIK3 (Homo sapiens, UniProt Q9Y2K2); experiment: ADP-Glo kinase assay, SIK3; assay type: biochemical
T2 construct: purchased SignalChem S12-11G-100
Method in brief: as §9

[4] = molecular target: T3, SIK2 (Homo sapiens, UniProt Q9H0K1); experiment: ADP-Glo kinase assay, SIK2; assay type: biochemical
T3 construct: purchased ThermoFisher Scientific PV4792
Method in brief: as §9

[5] = tested on: LPS triggered IL-10 secretion in monocytes; experiment: Monocytes assay: LPS-triggered IL-10 (ELISA); assay type: cell-based, human; conditions: Homo sapiens, Monocyte, LPS-triggered IL-10 induction, median maximal fold change vs LPS only, read-out: IL-10 FCmax median
Procedure: as §1, §2, §3, §4, §5, §6, §7, §8
A Lumitrac 600 Greiner 384-well plate is coated with 40 μL of capture antibody (final concentration of 1 μg/mL in 1×PBS) and stored overnight at 4° C. The next day the plate is washed three times with PBST (PBS+0.05% Tween20) and once with PBS followed by the addition of 100 μL of blocking buffer (1% BSA-5% Sucrose) and plates are sealed and incubated for at least 4 h at RT. After washing the plate once with PBST and once with PBS, 40 μL of standard or sample are added (IL-10 standard curve is prepared using a 1/2 serial dilution starting from 2000 pg/mL; dilutions are made in dilution buffer (PBS+1% BSA)). […] Plates are washed twice with PBST, and once with PBS, whereafter 35 μL of Strep-HRP conjugate (0.5 μg/mL final concentration diluted in dilution buffer) is added. Plates are incubated in the dark, at RT for at least 45 min but no longer than 1 h. Plates are washed twice with PBST, and once with PBS. Thereafter, 50 μL of luminol substrate is added to each well (prepared according to manufacturer's instructions), and incubated for 5 min at RT protected from light.
To quantify these increases, fold changes (FC) compared to ‘LPS only’ are calculated for each concentration tested and the maximal FC is calculated (IL-10 FCmax): […]

[6] = tested on: LPS-induced TNFα in monocyte-derived macrophages; experiment: MdM assay: LPS-triggered TNFα (ELISA); assay type: cell-based, human; conditions: Macrophage; human MdM; LPS 200 ng/mL; supernatant after 20 h; inhibition of TNFα; read-out: TNFα EC50
Procedure: This assay evaluates illustrative compounds of the invention for their inhibition of LPS-induced TNFα and LPS triggered IL-10 secretion in monocyte-derived macrophages. PBMCs are isolated from human blood samples (buffycoats). The buffy coat is aseptically transferred into a 50 mL Falcon tube, and diluted 1/2 in PBS. Falcon tubes are filled with 20 mL LymphoprepTM, on top of which 25 mL of the buffy coat is carefully added, tubes are centrifuged for 35 min at 400 g in temperature controlled centrifuge, without brake, at 25° C. PBMCs are aspirated from the white interface layer between sample and LymphoprepTM. PBMCs are washed five times in PBS. […] PBMCs are centrifuged at 300×g for 10 min and resuspended at a density of 1.0*10^7 cells/80 μL Miltenyi buffer (PBS, pH 7.4, 1% FBS, 2 mM EDTA). Starting from this point of the protocol all steps are performed on ice. 20 μL of CD14+ micro-beads are added per 1.0*10^7 cells, the tube is mixed and incubated for 15 min in the fridge at 4° C. Cell suspension volume is adjusted to total volume of 100 mL using Miltenyi buffer, mixed gently and subsequently centrifuged for 10 min at 300×g. Supernatant is discarded and cell pellet is resuspended in 12 mL of Miltenyi buffer. Four LS columns are placed in the MACS Separator (magnet) from Miltenyi Biotec, and are prewet by rinsing with 3 mL of MACS buffer per column. Three mL of cell suspension is added onto the column (max 1*10^8 of labelled cells/column), and columns are subsequently washed 3 times with 3 mL of Miltenyi buffer. The columns are removed from the magnets, and 5 mL of Miltenyi buffer are added to the column to flush out the CD14+ fraction by pushing the plunger into the column. The flushed fractions are collected in a fresh 50 mL Falcon and volume is adjusted to 30 mL using Miltenyi buffer, cells are centrifuged for 10 min at 300×g. The obtained cell pellet is resuspended in 10 mL RPMI w/o FBS, and cell density is determined using a hematologic analyser (Sysmex XS-500i). […] On day 10, MdMs are triggered and compound is added. A compound dilution plate is made in 100% DMSO by 3-fold dilution of 10 mM stock solution. An intermediate dilution plate (10× final concentration) is made by diluting the compound dilution plate […] in RPMI medium. Medium is carefully removed from cell plates using multichannel pipette, and replaced by 80 μL fresh medium. 10 μL of the 10× final concentration compound is added to the cells and incubated for 1 hour at 37° C. before addition of trigger. No trigger conditions/trigger conditions are spiked with equal final DMSO concentrations of 0.2% DMSO. 10 μL of 10×LPS (final conc. 200 ng/mL) solution are added to all wells except for the 'no trigger wells' where 10 μL medium is added. Supernatant is collected after 2 h (IL-10 determination) and after 20 h (TNFα determination) of LPS triggering. […] The plate is then washed once with PBST (PBS+0.05% Tween20) and once with PBS followed by the addition of 100 μL of blocking buffer (1% Bovine Serum Albumin (BSA) -5% Sucrose) and plates are sealed and incubated for at least 4 h at RT. After washing the plate once with PBST and once with PBS, 40 μL of standard or sample are added (TNFα standard curve is prepared using a 1/2 serial dilution starting from 16000 pg/mL; dilutions are made in dilution buffer (PBS+1% BSA)). Plates are washed twice with PBST, and once with PBS, after which 35 μL of the detection antibody is added (final concentration 0.25 μg/mL diluted in dilution buffer) and plates are incubated for at least 2 h at RT. Plates are washed twice with PBST, and once with PBS, where after 35 μL of Strep-HRP conjugate (0.5 μg/mL final concentration diluted in dilution buffer) is added. […] Plates are washed twice with PBST, and once with PBS. Thereafter, 50 μL of luminol substrate is added to each well (prepared according to manufacturer's instructions), and incubated for 5 min at RT protected from light.

T3 sequence (Q9H0K1 whole entry): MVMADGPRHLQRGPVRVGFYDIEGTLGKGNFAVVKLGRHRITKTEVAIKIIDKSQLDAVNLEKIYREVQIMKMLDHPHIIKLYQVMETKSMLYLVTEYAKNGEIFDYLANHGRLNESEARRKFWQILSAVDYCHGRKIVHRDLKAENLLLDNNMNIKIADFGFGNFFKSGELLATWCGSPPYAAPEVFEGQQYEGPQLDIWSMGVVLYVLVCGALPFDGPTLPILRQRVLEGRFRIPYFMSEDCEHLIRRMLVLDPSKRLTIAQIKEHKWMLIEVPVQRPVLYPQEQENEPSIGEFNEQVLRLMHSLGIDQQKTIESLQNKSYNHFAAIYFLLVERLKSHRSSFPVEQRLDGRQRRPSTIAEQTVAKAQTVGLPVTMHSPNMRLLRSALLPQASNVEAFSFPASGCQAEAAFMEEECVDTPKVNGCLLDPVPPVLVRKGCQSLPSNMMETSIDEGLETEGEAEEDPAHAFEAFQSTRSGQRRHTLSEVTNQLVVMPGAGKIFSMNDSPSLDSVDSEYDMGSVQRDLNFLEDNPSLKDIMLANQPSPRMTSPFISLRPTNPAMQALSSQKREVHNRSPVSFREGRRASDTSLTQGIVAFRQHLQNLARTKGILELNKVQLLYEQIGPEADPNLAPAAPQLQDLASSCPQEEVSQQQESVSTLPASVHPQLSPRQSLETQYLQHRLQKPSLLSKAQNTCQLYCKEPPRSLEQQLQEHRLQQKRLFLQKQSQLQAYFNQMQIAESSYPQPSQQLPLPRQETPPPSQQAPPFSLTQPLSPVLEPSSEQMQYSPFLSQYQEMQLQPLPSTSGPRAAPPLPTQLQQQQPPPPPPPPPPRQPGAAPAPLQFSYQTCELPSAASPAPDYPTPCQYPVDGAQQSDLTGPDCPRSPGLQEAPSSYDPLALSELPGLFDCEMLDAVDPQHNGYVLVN
T1 sequence (P57059 whole entry): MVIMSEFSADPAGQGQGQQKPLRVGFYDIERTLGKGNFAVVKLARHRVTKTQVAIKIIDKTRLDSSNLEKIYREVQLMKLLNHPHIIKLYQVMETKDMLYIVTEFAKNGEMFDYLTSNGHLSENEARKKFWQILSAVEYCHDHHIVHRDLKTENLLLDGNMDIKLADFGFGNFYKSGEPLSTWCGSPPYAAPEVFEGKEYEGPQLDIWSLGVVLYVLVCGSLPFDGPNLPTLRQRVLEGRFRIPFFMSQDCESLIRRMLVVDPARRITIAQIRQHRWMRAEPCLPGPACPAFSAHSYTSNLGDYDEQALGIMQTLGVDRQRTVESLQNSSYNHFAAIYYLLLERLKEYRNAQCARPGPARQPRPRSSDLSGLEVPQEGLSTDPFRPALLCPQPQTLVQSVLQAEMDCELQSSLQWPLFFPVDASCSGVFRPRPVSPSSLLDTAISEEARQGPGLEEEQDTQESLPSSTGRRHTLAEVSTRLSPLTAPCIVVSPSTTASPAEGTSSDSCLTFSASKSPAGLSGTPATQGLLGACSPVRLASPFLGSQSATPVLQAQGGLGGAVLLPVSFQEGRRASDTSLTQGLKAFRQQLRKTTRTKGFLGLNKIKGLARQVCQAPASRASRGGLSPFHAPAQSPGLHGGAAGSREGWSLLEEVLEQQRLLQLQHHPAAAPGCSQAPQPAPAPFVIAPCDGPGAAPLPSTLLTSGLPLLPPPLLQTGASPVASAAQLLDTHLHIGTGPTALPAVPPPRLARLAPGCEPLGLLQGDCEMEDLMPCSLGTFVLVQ
T2 sequence (Q9Y2K2 59-365 limits assumed): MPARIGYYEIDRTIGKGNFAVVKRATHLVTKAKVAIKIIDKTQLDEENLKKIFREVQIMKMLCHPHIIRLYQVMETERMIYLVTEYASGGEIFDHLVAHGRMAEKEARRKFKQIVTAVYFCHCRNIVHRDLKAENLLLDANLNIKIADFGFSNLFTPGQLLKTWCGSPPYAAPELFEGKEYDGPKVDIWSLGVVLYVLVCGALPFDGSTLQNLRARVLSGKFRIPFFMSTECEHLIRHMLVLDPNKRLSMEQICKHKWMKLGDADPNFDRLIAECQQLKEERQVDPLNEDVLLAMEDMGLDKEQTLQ

Row | SMILES | EC50 [1] [nM] | IC50 [2] [nM] | IC50 [3] [nM] | IC50 [4] [nM] | maximal fold induction [5] | EC50 [6] [nM]
1 | COc1cn2c(-c3cc(OC)c(C(=O)NC4CC4)c(OC(F)F)c3)cnc2cc1C(C)(C)C#N [Cpd 200, 4-[7-(1-cyano-1-methyl-ethyl)-6-methoxy-imidazo[1,2-a]pyridin-3-yl]-N-cyclopropyl-2-(difluoromethoxy)-6-methoxy-benzamide] | 100 to 1000 | > 500 | 10 to 100 | 100 to 500 | < 1.5 | –
2 | COc1cc(-c2cnc3cc(C(C)(C)OC)ccn23)cc(OC(F)F)c1C(=O)NC1CC1 [Cpd 120, N-cyclopropyl-2-(difluoromethoxy)-6-methoxy-4-[7-(1-methoxy-1-methyl-ethyl)imidazo[1,2-a]pyridin-3-yl]benzamide] | – | > 500 | 0.01 to 10 | > 500 | – | 100 to 1000
3 | COc1cc(-c2cnc3cc(C4CCCN(C)C4)ccn23)cc(OC(F)F)c1C(=O)NC1CC1 (centres unmarked) [Cpd 67, N-cyclopropyl-2-(difluoromethoxy)-6-methoxy-4-[7-(1-methyl-3-piperidyl)imidazo[1,2-a]pyridin-3-yl]benzamide] | – | > 500 | 0.01 to 10 | 10 to 100 | – | 100 to 1000
4 | COc1cc(-c2cnc3cc(C4CCN(C)CC4)ccn23)cc(OC(F)F)c1C(=O)NC1CC1 [Cpd 68, N-cyclopropyl-2-(difluoromethoxy)-6-methoxy-4-[7-(1-methyl-4-piperidyl)imidazo[1,2-a]pyridin-3-yl]benzamide] | – | > 500 | 0.01 to 10 | 10 to 100 | – | 1000 to 5000
5 | COc1cc(-c2cnn3cc(C(C)(C)C#N)ccc23)cc(OC(F)F)c1C(=O)N[C@@H]1C[C@@H]1F (racemic) [Cpd 233, 4-[6-(1-cyano-1-methyl-ethyl)pyrazolo[1,5-a]pyridin-3-yl]-2-(difluoromethoxy)-N-(2-fluorocyclopropyl)-6-methoxy-benzamide] | 100 to 1000 | – | – | – | < 1.5 | –
6 | COc1cc(-c2cnn3cc(C(C)(C)C#N)ccc23)cc(OC(F)F)c1C(=O)N[C@H]1C[C@H]1F [Cpd 234, 4-[6-(1-cyano-1-methyl-ethyl)pyrazolo[1,5-a]pyridin-3-yl]-2-(difluoromethoxy)-N-[(1S,2R)-2-fluorocyclopropyl]-6-methoxy-benzamide] | 100 to 1000 | – | – | – | < 1.5 | –
7 | COc1cc(-c2cnc3cc(C(C)(O)C(C)C)ccn23)cc(OC(F)F)c1C(=O)NC1CC1 (centres unmarked) [Cpd 135, N-cyclopropyl-2-(difluoromethoxy)-4-[7-(1-hydroxy-1,2-dimethyl-propyl)imidazo[1,2-a]pyridin-3-yl]-6-methoxy-benzamide] | – | > 500 | 10 to 100 | > 500 | – | 100 to 1000
8 | COc1cc(-c2cnc3cc(C4(C#N)CCCC4)ccn23)cc(OC(F)F)c1C(=O)NC1CC1 [Cpd 53, 4-[7-(1-cyanocyclopentyl)imidazo[1,2-a]pyridin-3-yl]-N-cyclopropyl-2-(difluoromethoxy)-6-methoxy-benzamide] | – | > 500 | 0.01 to 10 | > 500 | – | 100 to 1000
